From US8557853B2, “Aryl fluoroethyl ureas acting as alpha 2 adrenergic agents” (Allergan, Inc., priority 2007, dated 2013)
Where two headings read alike, the source gives them in different places.

Key:
Assay type in all cases: cell-based
[1] = target: T1, alpha2A receptor (Homo sapiens, UniProt P08913); assay: RSAT (Receptor Selection and Amplification Technology) assay, alpha 2A; settings: for EC50 / Alpha 2A EC50: RSAT, transfected NIH-3T3 cells, "not active" = not active at concentrations less than 10 micromolar; for Alpha 2A IA: intrinsic activity: ratio of maximal effect of drug to maximal effect of standard full agonist brimonidine (UK14304)
T1 construct: expressed in transfected cells; host or cells: NIH-3T3 cells
T1 sequence (P08913 1-465): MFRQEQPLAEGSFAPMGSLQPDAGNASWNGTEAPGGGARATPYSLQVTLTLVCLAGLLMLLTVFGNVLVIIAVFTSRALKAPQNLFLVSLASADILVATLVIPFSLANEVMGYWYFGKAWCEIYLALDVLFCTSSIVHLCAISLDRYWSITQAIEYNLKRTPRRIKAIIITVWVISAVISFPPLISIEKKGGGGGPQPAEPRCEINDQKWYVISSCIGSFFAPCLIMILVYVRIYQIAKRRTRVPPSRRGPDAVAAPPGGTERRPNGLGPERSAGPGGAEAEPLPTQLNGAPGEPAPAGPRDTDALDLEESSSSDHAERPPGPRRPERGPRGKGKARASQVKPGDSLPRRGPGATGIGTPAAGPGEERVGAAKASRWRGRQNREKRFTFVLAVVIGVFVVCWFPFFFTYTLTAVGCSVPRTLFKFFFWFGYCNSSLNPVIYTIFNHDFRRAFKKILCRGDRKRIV
Text: (§1) The aryl fluoroethyl ureas of the invention are agonists of alpha2 adrenergic receptors. […] Al, 1995, Pharmacol. Toxicol. 76, pp. 308-311 (incorporated herein by reference) and is also described below. Another reference pertinent to this assay is Conklin et al. (1993) Nature 363:274-6, Receptor Selection and Amplification Technology (RSAT) assay, also incorporated herein by reference.
(§2) The RSAT assay measures a receptor-mediated loss of contact inhibition that results in selective proliferation of receptor-containing cells in a mixed population of confluent cells. The increase in cell number is assessed with an appropriate transfected marker gene such as ∃-galactosidase, the activity of which can be easily measured in a 96-well format. Receptors that activate the G protein, Gq, elicit this response. Alpha 2 receptors, which normally couple to Gi, activate the RSAT response when coexpressed with a hybrid Gq protein that has a Gi receptor recognition domain, called Gq/i5.
(§3) NIH-3T3 cells are plated at a density of 2×10^6 cells in 15 cm dishes and maintained in Dulbecco's modified Eagle's medium supplemented with 10% calf serum. One day later, cells are cotransfected by calcium phosphate precipitation with mammalian expression plasmids encoding p-SV-β-galactosidase (5-10 μg), receptor (1-2 μg) and G protein (1-2 μg). 40 μg salmon sperm DNA may also be included in the transfection mixture. Fresh media is added on the following day and 1-2 days later, cells are harvested and frozen in 50 assay aliquots. Cells are thawed and 100 μl added to 100 μl aliquots of various concentrations of drugs in triplicate in 96-well dishes. Incubations continue 72-96 hr at 37° C. After washing with phosphate-buffered saline, ∃-galactosidase enzyme activity is determined by adding 200 μl of the chromogenic substrate (consisting of 3.5 mM o-nitrophenyl-β-D-galactopyranoside and 0.5% nonidet P-40 in phosphate buffered saline), incubating overnight at 30° C. and measuring optical density at 420 nm. The absorbance is a measure of enzyme activity, which depends on cell number and reflects a receptor-mediated cell proliferation. The efficacy or intrinsic activity is calculated as a ratio of the maximal effect of the drug to the maximal effect of a standard full agonist for each receptor subtype. Brimonidine, also called UK14304, the chemical structure of which is shown below, is used as the standard agonist for the alpha2A, alpha2B and alpha2C receptors.
(§4) The results of the RSAT assay with several exemplary compounds of the invention are disclosed in Table 1 below together with the chemical structures of these compounds. “Not active” means the compounds are not active at concentrations less than 10 micromolar.

[2] = target: T2, alpha2B receptor (Homo sapiens, UniProt P18089); assay: RSAT (Receptor Selection and Amplification Technology) assay, alpha 2B; settings: for Alpha 2B IA: intrinsic activity: ratio of maximal effect of drug to maximal effect of standard full agonist brimonidine (UK14304)
T2 construct: expressed in transfected cells; host or cells: NIH-3T3 cells
T2 sequence (P18089 1-450): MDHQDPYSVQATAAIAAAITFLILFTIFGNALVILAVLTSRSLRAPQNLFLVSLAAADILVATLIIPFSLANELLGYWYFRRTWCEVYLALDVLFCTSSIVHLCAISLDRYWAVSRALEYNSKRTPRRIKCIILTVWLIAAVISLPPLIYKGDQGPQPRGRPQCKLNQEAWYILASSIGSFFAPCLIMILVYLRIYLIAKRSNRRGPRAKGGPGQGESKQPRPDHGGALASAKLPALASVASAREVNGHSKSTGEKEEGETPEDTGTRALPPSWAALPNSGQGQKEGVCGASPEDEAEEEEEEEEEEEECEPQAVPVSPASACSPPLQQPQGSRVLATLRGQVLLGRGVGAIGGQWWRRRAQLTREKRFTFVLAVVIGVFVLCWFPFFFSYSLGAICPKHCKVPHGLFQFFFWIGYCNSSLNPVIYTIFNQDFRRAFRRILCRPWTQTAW
Experimental: as §2, §3

[3] = target: T3, alpha2C receptor (Homo sapiens, UniProt P18825); assay: RSAT (Receptor Selection and Amplification Technology) assay, alpha 2C; settings: for EC50 / Alpha 2C EC50: RSAT, transfected NIH-3T3 cells, "not active" = not active at concentrations less than 10 micromolar; for Alpha 2C IA: intrinsic activity: ratio of maximal effect of drug to maximal effect of standard full agonist brimonidine (UK14304)
T3 construct: expressed in transfected cells; host or cells: NIH-3T3 cells
T3 sequence (P18825 1-462): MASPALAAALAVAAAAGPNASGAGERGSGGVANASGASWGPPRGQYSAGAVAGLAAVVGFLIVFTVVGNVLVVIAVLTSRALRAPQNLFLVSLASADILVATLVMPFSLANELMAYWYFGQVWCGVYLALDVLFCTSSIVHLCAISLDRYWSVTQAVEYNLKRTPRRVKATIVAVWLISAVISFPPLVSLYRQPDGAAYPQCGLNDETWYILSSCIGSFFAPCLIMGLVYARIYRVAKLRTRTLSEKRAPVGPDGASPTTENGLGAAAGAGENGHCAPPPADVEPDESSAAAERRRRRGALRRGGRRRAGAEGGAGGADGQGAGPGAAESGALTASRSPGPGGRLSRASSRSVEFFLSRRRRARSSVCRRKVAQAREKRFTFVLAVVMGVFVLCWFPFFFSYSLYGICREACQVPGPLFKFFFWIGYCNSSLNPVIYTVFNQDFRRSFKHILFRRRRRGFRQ
Text: as §1, §2, §3, §4

[4] = RSAT, transfected NIH-3T3 cells, "not active" = not active at concentrations less than 10 micromolar, read-out: Alpha 2B EC50

EC50 [1] | Alpha 2A IA [1] | EC50 [2, 4] | Alpha 2B IA [2] | EC50 [3] | Alpha 2C IA [3] | Alpha 2A EC50 [1] | Alpha 2C EC50 [3] | SMILES | EC50 [2]
> 2000 nM | 0.38 | 1540 nM | 0.92 | > 2000 nM | 0.48 | – | – | Cc1ccccc1NC(=O)NCCF [Compound 22, 1-(2-fluoro-ethyl)-3-o-tolyl-urea] | –
> 2000 nM | 0.61 | 679 nM | 0.75 | > 2000 nM | 0.43 | – | – | Cc1cccc(C)c1NC(=O)NCCF [Compound 23, 1-(2,6-dimethyl-phenyl)-3-(2-fluoro-ethyl)-urea] | –
2670 nM | 0.35 | > 2000 nM | 0.82 | > 2000 nM | 0.36 | – | – | CCc1ccccc1NC(=O)NCCF [Compound 24, 1-(2-ethyl-phenyl)-3-(2-fluoro-ethyl)-urea] | –
> 2000 nM | 0.54 | 401 nM | 0.9 | 740 nM | 0.73 | – | – | Cc1cccc(NC(=O)NCCF)c1C [Compound 27, 1-(2,3-dimethyl-phenyl)-3-(2-fluoro-ethyl)-urea] | –
> 2000 nM | 0.48 | 119 nM | 1.0 | 2020 nM | 1.2 | – | – | O=C(NCCF)NCc1cccc2c1OCO2 [Compound 31, 1-benzo(1,3)dioxol-4-ylmethyl-3-(2-fluoro-ethyl)-urea] | –
1760 nM | 0.62 | 414 nM | 0.78 | 1800 nM | 0.52 | – | – | Cc1cccc(CNC(=O)NCCF)n1 [Compound 36, 1-(2-fluoro-ethyl)-3-(6-methyl-pyridin-2-ylmethyl)-urea] | –
– | – | 592 nM | 0.85 | 2160 nM | 0.65 | not active | – | O=C(NCCF)NCc1cccc(Br)n1 [Compound 38, 1-(6-bromo-pyridin-2-ylmethyl)-3-(2-fluoro-ethyl)-urea] | –
2170 nM | 0.36 | 343 nM | 0.77 | 1560 nM | 0.61 | – | – | Cc1ccnc(CNC(=O)NCCF)c1 [Compound 39, 1-(2-Fluoro-ethyl)-3-(4-methyl-pyridin-2-ylmethyl)-urea] | –
– | – | 293 nM | 0.84 | 800 nM | 0.69 | not active | – | O=C(NCCF)NCc1ccc(O)cc1 [Compound 41, 1-(2-fluoro-ethyl)-3-(4-hydroxy-benzyl)-urea] | –
3520 nM | 0.33 | 137 nM | 0.81 | 1060 nM | 0.67 | – | – | O=C(NCCF)NCc1cccc(O)c1 [Compound 42, 1-(2-fluoro-ethyl)-3-(3-hydroxy-benzyl)-urea] | –

More lines, now with the values behind:

SMILES | EC50 [1] | Alpha 2A IA [1] | EC50 [2, 4] | Alpha 2B IA [2] | EC50 [3] | Alpha 2C IA [3] | Alpha 2A EC50 [1] | Alpha 2C EC50 [3] | EC50 [2]
O=C(NCCF)Nc1ccc2ccccc2c1 [Compound 25, 1-(2-fluoro-ethyl)-3-naphthalen-2-yl-urea] | 1270 nM | 0.58 | 1580 nM | 0.99 | > 2000 nM | 0.59 | – | – | –
O=C(NCCF)Nc1ccccc1Br [Compound 26, 1-(2-bromo-phenyl)-3-(2-fluoro-ethyl)-urea] | – | – | 2650 nM | 0.33 | – | – | not active | not active | –
O=C(NCCF)Nc1cccc2c1CCCC2 [Compound 28, 1-(2-fluoro-ethyl)-3-(5,6,7,8-tetrahydro-naphthalen-1-yl)-urea] | 385 nM | 0.43 | 157 nM | 0.87 | 285 nM | 0.74 | – | – | –
O=C(NCCF)Nc1cccc2c1CCC2 [Compound 29, 1-(2-fluoro-ethyl)-3-indan-4-yl-urea] | 940 nM | 0.37 | 1220 nM | 0.89 | 2550 nM | 0.63 | – | – | –
O=C(NCCF)Nc1cccc2ccccc12 [Compound 30, 1-(2-fluoro-ethyl)-3-naphthalen-1-yl-urea] | 1060 nM | 0.74 | 458 nM | 0.9 | > 2000 nM | 0.66 | – | – | –
O=C(NCCF)NC(c1ccccc1)c1ccccc1 [Compound 32, 1-benzhydryl-3-(2-fluoro-ethyl)-urea] | – | – | 325 nM | 0.58 | – | – | not active | not active | –
C[C@H](NC(=O)NCCF)c1ccccc1 [Compound 33, (−)-(S)-1-(2-Fluoro-ethyl)-3-(1-phenyl-ethyl)-urea] | 302 nM | 0.63 | 66 nM | 0.99 | 513 nM | 0.64 | – | – | –
Cc1cccc(C(NC(=O)NCCF)c2ccc(C)s2)c1 (stereo not drawn) [Compound 34, 1-(2-fluoro-ethyl)-3-[(5-methyl-thiophen-2-yl)-m-tolyl-methyl]-urea] | – | – | 829 nM | 0.41 | – | – | not active | not active | –
O=C(NCCF)NCc1ccccn1 [Compound 35, 1-(2-fluoro-ethyl)-3-pyridin-2-ylmethyl-urea] | – | – | – | 0.75 | 3710 nM | 0.38 | not active | – | 1990 nM
Cc1cccnc1CNC(=O)NCCF [Compound 37, 1-(2-fluoro-ethyl)-3-(3-methyl-pyridin-2-ylmethyl)-urea] | – | – | – | 0.40 | – | – | not active | not active | 3540 nM
Cc1ccc(CNC(=O)NCCF)o1 [Compound 40, 1-(2-fluoro-ethyl)-3-(5-methyl-furan-2-ylmethyl)-urea] | – | – | – | 0.83 | 2630 nM | 0.56 | not active | – | 968 nM
